Calls of active or inactive are those of the source. The calls are words filed in the database; no cut-off is given here.
Key:
UO-31 = assay: Antiproliferative activity against human UO31 cells assessed as growth inhibition after 48 hrs by sulforhodamine B assay; type: functional; conditions: UO-31, 48 h
[1] = tested on: Panel NCI-60 (60 carcinoma cell lines); assay: Antiproliferative activity against human NCI60 cells assessed as growth inhibition after 48 hrs by sulforhodamine B assay; type: functional
WI-38 = assay: Cytotoxicity activity against human WI38 cells assessed as reduction in cell viability measured after 48 hrs by MTT assay; type: cell-based; conditions: WI-38, 48 h
[2] = Selectivity index, ratio of IC50 for human WI38 cells to GI50 for human NCI60 cells
PC-3 = assay: Antiproliferative activity against human PC3 cells assessed as growth inhibition after 48 hrs by sulforhodamine B assay; type: functional; conditions: PC-3, 48 h
OVCAR-3 = assay: Antiproliferative activity against human OVCAR3 cells assessed as growth inhibition after 48 hrs by sulforhodamine B assay; type: functional; conditions: OVCAR-3, 48 h
[3] = tested on: Panel NCI-60 (60 carcinoma cell lines); assay: Antiproliferative activity against human NCI60 cells assessed as growth inhibition at 10 uM after 48 hrs by sulforhodamine B assay; type: functional; conditions: read-out: GI
DU-145 = assay: Antiproliferative activity against human DU145 cells assessed as growth inhibition after 48 hrs by sulforhodamine B assay; type: functional; conditions: DU-145, 48 h
ACHN = assay: Antiproliferative activity against human ACHN cells assessed as growth inhibition after 48 hrs by sulforhodamine B assay; type: functional
786-0 = assay: Antiproliferative activity against human 786-0 cells assessed as growth inhibition after 48 hrs by sulforhodamine B assay; type: functional; conditions: 786-0, 48 h
SK-OV-3 = assay: Antiproliferative activity against human SKOV3 cells assessed as growth inhibition after 48 hrs by sulforhodamine B assay; type: functional; conditions: SK-OV-3, 48 h
NCI/ADR-RES = assay: Antiproliferative activity against human NCI-ADR-RES cells assessed as growth inhibition after 48 hrs by sulforhodamine B assay; type: functional
IGROV-1 = assay: Antiproliferative activity against human IGROV1 cells assessed as growth inhibition after 48 hrs by sulforhodamine B assay; type: functional; conditions: IGROV-1, 48 h
SK-MEL-5 = assay: Antiproliferative activity against human SK-MEL-5 cells assessed as growth inhibition after 48 hrs by sulforhodamine B assay; type: functional; conditions: SK-MEL-5, 48 h
SK-MEL-2 = assay: Antiproliferative activity against human SK-MEL-2 cells assessed as growth inhibition after 48 hrs by sulforhodamine B assay; type: functional; conditions: SK-MEL-2, 48 h
MDA-MB-435 = assay: Antiproliferative activity against human MDA-MB-435 cells assessed as growth inhibition after 48 hrs by sulforhodamine B assay; type: functional; conditions: MDA-MB-435, 48 h
Malme-3M = assay: Antiproliferative activity against human MALME-3M cells assessed as growth inhibition after 48 hrs by sulforhodamine B assay; type: functional
LOX IMVI = assay: Antiproliferative activity against human LOXIMVI cells assessed as growth inhibition after 48 hrs by sulforhodamine B assay; type: functional
U-251 = assay: Antiproliferative activity against human U251 cells assessed as growth inhibition after 48 hrs by sulforhodamine B assay; type: functional; conditions: U-251, 48 h
SNB-75 = assay: Antiproliferative activity against human SNB75 cells assessed as growth inhibition after 48 hrs by sulforhodamine B assay; type: functional; conditions: SNB-75, 48 h
SNB-19 = assay: Antiproliferative activity against human SNB19 cells assessed as growth inhibition after 48 hrs by sulforhodamine B assay; type: functional; conditions: SNB-19, 48 h
SF-295 = assay: Antiproliferative activity against human SF295 cells assessed as growth inhibition after 48 hrs by sulforhodamine B assay; type: functional; conditions: SF-295, 48 h
SF-268 = assay: Antiproliferative activity against human SF268 cells assessed as growth inhibition after 48 hrs by sulforhodamine B assay; type: functional; conditions: SF-268, 48 h
KM12 = assay: Antiproliferative activity against human KM12 cells assessed as growth inhibition after 48 hrs by sulforhodamine B assay; type: functional; conditions: KM12, 48 h
HT-29 = assay: Antiproliferative activity against human HT-29 cells assessed as growth inhibition after 48 hrs by sulforhodamine B assay; type: functional; conditions: HT-29, 48 h
HCT-15 = assay: Antiproliferative activity against human HCT15 cells assessed as growth inhibition after 48 hrs by sulforhodamine B assay; type: functional; conditions: HCT-15, 48 h
HCC 2998 = assay: Antiproliferative activity against human HCC2998 cells assessed as growth inhibition after 48 hrs by sulforhodamine B assay; type: functional; conditions: HCC 2998, 48 h
NCI-H460 = assay: Antiproliferative activity against human NCI-H460 cells assessed as growth inhibition after 48 hrs by sulforhodamine B assay; type: functional; conditions: NCI-H460, 48 h
NCI-H322M = assay: Antiproliferative activity against human NCI-H322M cells assessed as growth inhibition after 48 hrs by sulforhodamine B assay; type: functional
EKVX = assay: Antiproliferative activity against human EKVX cells assessed as growth inhibition after 48 hrs by sulforhodamine B assay; type: functional
A549 = assay: Antiproliferative activity against human A549/ATCC cells assessed as growth inhibition after 48 hrs by sulforhodamine B assay; type: functional; conditions: A549, 48 h
MOLT-4 = assay: Antiproliferative activity against human MOLT4 cells assessed as growth inhibition after 48 hrs by sulforhodamine B assay; type: functional; conditions: MOLT-4, 48 h
HL-60(TB) = assay: Antiproliferative activity against human HL-60(TB) cells assessed as growth inhibition after 48 hrs by sulforhodamine B assay; type: functional; conditions: HL-60, 48 h
CCRF-CEM = assay: Antiproliferative activity against human CCRF-CEM cells assessed as growth inhibition after 48 hrs by sulforhodamine B assay; type: functional
Hs-578T = assay: Antiproliferative activity against human Hs578T cells assessed as growth inhibition after 48 hrs by sulforhodamine B assay; type: functional
Erythrocyte [4] = assay: Haemolytic activity in human erythrocytes assessed as induction of hemolysis at 1.25 mM after 30 mins relative to H202; type: cell-based; conditions: erythrocyte, 0.5 h, 1250 µM
Erythrocyte [5] = assay: Haemolytic activity in human erythrocytes assessed as induction of hemolysis at 0.625 mM after 30 mins relative to H202; type: cell-based; conditions: erythrocyte, 0.5 h, 625 µM
[6] = Antioxidant activity assessed as DPPH radical scavenging activity incubated in dark for 30 mins by spectrophotometric method relative to ascorbic acid; type: functional
[7] = Antioxidant activity assessed as hydroxyl radical scavenging activity after 1 hr by salicylic acid-based Fenton reaction assay; type: functional
[8] = Pro-oxidant activity assessed as increase in bleomycin-Fe2+ induced calf thymus DNA damage at 2 mM after 1 hr by thiobarbituric acid based absorbance analysis
HCT-116 [9] = assay: Induction of apoptosis in human HCT116 cells assessed as increase in caspase 9 mRNA expression at 100 nM after 6 hrs hrs by SYBR green dye-based qRT-PCR analysis relative to control; type: functional
HCT-116 [10] = assay: […] in CDK1 mRNA expression in human HCT116 cells at 100 nM after 6 hrs hrs by SYBR green dye-based qRT-PCR analysis relative to control; type: functional

In the case of `N=C(N)c1ccc(-c2ccc(-c3cc(Cl)cc(Cl)c3)s2)s1`, the GI50 (UO-31) is reported as 1.74 µM, the GI50 [1] is reported as 1.94 µM and the LC50 [1] is reported as 75.8 µM. For the same compound, the TGI [1] was 4.46 µM, the IC50 (WI-38) was 98.8 µM and the “Selectivity Index” value [2] was 50.9. For the same compound, the GI50 (PC-3) was 1.88 µM, the GI50 (OVCAR-3) was 1.81 µM and the inhibition of growth at 10 µM [3] was -28.6%. For the same compound, the GI50 (DU-145) was 1.82 µM, the GI50 (ACHN) was 1.75 µM and the GI50 (786-0) was 1.98 µM. It also gave a GI50 (SK-OV-3) of 3.62 µM, a GI50 (NCI/ADR-RES) of 2.06 µM and a GI50 (IGROV-1) of 1.97 µM. For the same compound, the GI50 (SK-MEL-5) was 1.9 µM, the GI50 (SK-MEL-2) was 2.24 µM and the GI50 (MDA-MB-435) was 1.67 µM. It also gave a GI50 (Malme-3M) of 1.85 µM, a GI50 (LOX IMVI) of 1.69 µM and a GI50 (U-251) of 1.86 µM. It also gave a GI50 (SNB-75) of 1.38 µM, a GI50 (SNB-19) of 2.11 µM and a GI50 (SF-295) of 1.96 µM. For the same compound, the GI50 (SF-268) was 1.96 µM, the GI50 (KM12) was 1.75 µM and the GI50 (HT-29) was 1.65 µM. For the same compound, the GI50 (HCT-15) was 1.62 µM, the GI50 (HCC 2998) was 1.75 µM and the GI50 (NCI-H460) was 2.05 µM. For the same compound, the GI50 (NCI-H322M) was 1.66 µM, the GI50 (EKVX) was 1.75 µM and the GI50 (A549) was 2.07 µM. For the same compound, the GI50 (MOLT-4) was 1.71 µM, the GI50 (HL-60(TB)) was 1.66 µM and the GI50 (CCRF-CEM) was 2.14 µM. The GI50 (Hs-578T) was 2.15 µM, the Activity (Erythrocyte [4]) was “Non-Toxic” and the Activity (Erythrocyte [5]) was “Non-Toxic”. For the same compound, the fold change (FC) [6] was 0.3, the Activity [7] was “Active” and the Activity [8] was “Active”. For the same compound, the “fold change (FC)” value (HCT-116 [9]) was 1.54 and the “fold change (FC)” value (HCT-116 [10]) was 0.21.
With `N=C(N)c1ccc(-c2ccc(-c3ccc(F)cc3)s2)s1` the GI50 (UO-31) was 1.77 µM, the GI50 [1] was 1.77 µM and the LC50 [1] was 12 µM. For the same compound, the TGI [1] was 3.54 µM, the IC50 (WI-38) was 13.3 µM and the “Selectivity Index” value [2] was 7.5. For the same compound, the GI50 (PC-3) was 1.77 µM, the GI50 (OVCAR-3) was 1.78 µM and the inhibition of growth at 10 µM [3] was -25.8%. The GI50 (DU-145) was 1.72 µM, the GI50 (ACHN) was 1.71 µM and the GI50 (786-0) was 1.81 µM. The GI50 (SK-OV-3) was 1.8 µM, the GI50 (NCI/ADR-RES) was 1.79 µM and the GI50 (IGROV-1) was 1.73 µM. For the same compound, the GI50 (SK-MEL-5) was 1.81 µM, the GI50 (SK-MEL-2) was 1.81 µM and the GI50 (MDA-MB-435) was 1.59 µM. The GI50 (Malme-3M) was 1.81 µM, the GI50 (LOX IMVI) was 1.62 µM and the GI50 (U-251) was 1.8 µM. The GI50 (SNB-75) was 1.48 µM, the GI50 (SNB-19) was 1.97 µM and the GI50 (SF-295) was 1.61 µM. For the same compound, the GI50 (SF-268) was 1.69 µM, the GI50 (KM12) was 1.71 µM and the GI50 (HT-29) was 1.53 µM. It also gave a GI50 (HCT-15) of 1.34 µM, a GI50 (HCC 2998) of 1.73 µM and a GI50 (NCI-H460) of 1.89 µM. It also gave a GI50 (NCI-H322M) of 1.63 µM, a GI50 (EKVX) of 1.47 µM and a GI50 (A549) of 1.93 µM. For the same compound, the GI50 (MOLT-4) was 1.52 µM, the GI50 (HL-60(TB)) was 1.4 µM and the GI50 (CCRF-CEM) was 1.85 µM. For the same compound, the GI50 (Hs-578T) was 2.19 µM, the Activity (Erythrocyte [4]) was “Non-Toxic” and the Activity (Erythrocyte [5]) was “Non-Toxic”. For the same compound, the fold change (FC) [6] was 0.5, the Activity [7] was “Active” and the Activity [8] was “Active”. The “fold change (FC)” value (HCT-116 [9]) was 3.89 and the “fold change (FC)” value (HCT-116 [10]) was 0.89.

— ChEMBL document CHEMBL4346657, “Anticancer activity, dual prooxidant/antioxidant effect and apoptosis induction profile of new bichalcophene-5-carboxamidines” (Eur J Med Chem, 2019)
